Publication PMC4900588, “Amphipathic β^2,2-Amino Acid Derivatives Suppress Infectivity and Disrupt the Intracellular Replication Cycle of Chlamydia pneumoniae” (PLoS ONE, 2016)
“And” between values parts separate entries of the source, which are not always exact repeats. Identical values can stand only once. Like-named read-outs stand apart in the source and are kept apart here.

Legend:
C. pneumoniae [1] = test: Infectious progeny assay; assay type: cell-based, Chlamydia pneumoniae; conditions: for inclusion vacuole counts in the second passage of infection vs untreated control: 5 μM; for suppression of infectious progeny production: administered at 6 hpi or later (data not shown)
Protocol: To measure the effects of the β^2,2-amino acid derivatives on production of new infectious progeny by C. pneumoniae, HL cells were infected with C. pneumoniae as described above in the presence of the derivatives (at a concentration of 5 μM). At 72 hpi, medium was removed from the wells and 200 μl fresh medium was added. The cells were scraped off and then further lysed by vortexing with glass beads, and the lysates were used to infect fresh HL cell monolayers. Inclusion counts in the second passage of infection were determined with immunofluorescent staining as described above, and control wells fixed and stained after the first infectious cycle were used as internal controls.

C. pneumoniae EBs = test: Elementary body infectivity assay; assay type: cell-based; conditions: Chlamydia pneumoniae; EBs treated with 5 μM for 1 h before inoculation of HL cells; read-out: inhibition of EB infectivity
Protocol: C. pneumoniae EBs were suspended into the HL cell growth medium supplemented with cycloheximide at 400 000 inclusion forming units (IFU)/ml and exposed to 5 μM of the derivatives A1—A6 for 1 h at 4°C. Immediately afterwards, aliquots of the EBs suspensions were used to infect HL cell monolayers as described above (MOI 0.2), resulting in typically 40–60 inclusions per eye field in nontreated control infections.

C. pneumoniae [2] = test: Delayed administration assay; assay type: cell-based, Chlamydia pneumoniae; conditions: for reduction in inclusion vacuole counts: 3 μM, added at 6 hpi or later; for inhibition at 3 µM: Chlamydia pneumoniae, added at 2 hpi, read-out: inhibition of inclusion vacuole counts
Protocol: (§1) For all experiments applying immunofluorescence, HL cells were seeded in 24-well plates with coverslips at density of 4 x 10^5 cells/well and incubated overnight before infection. The cells were inoculated with C. pneumoniae at multiplicity of infection (MOI) 0.2 in the cell growth media supplemented with 1 μg/ml cycloheximide to enhance chlamydial growth. The inoculated cultures were centrifuged at 550 g at 4°C for 1 h and incubated at 37°C for 1 h. Inocula were removed, fresh medium was added into wells and the plates were incubated for 70 h. Afterwards the cultures were fixed with methanol and the coverslips were stained with Pathfinder Chlamydia cell culture confirmation system (Bio-Rad) based on a genus-specific anti-LPS antibody to visualize the host cells and chlamydial inclusions. Detailed protocols for the infection and staining can be found in [29]. Unless otherwise stated in the text, the derivatives were added into the culture medium at 2 hours post infection (hpi), i.e., at the time when inocula were removed. […] DMSO concentration was adjusted to 0.1% in all experiments.
HL cells were infected as described above and treated with derivatives at concentrations of 3 μM in order to cause inhibition of infection above 50%. The treatment of the infected cells was delayed by 4, 10 and 22 h and inclusions counts were subsequently performed as described above.

C. pneumoniae strain K7 = test: C. pneumoniae inclusion count inhibition in infected HL cells (immunofluorescence); assay type: cell-based, Chlamydia pneumoniae; conditions: for inhibition at 5 µM / reduction in inclusion counts / inhibition against C. pneumoniae: added at 2 hpi, 72 h, 5 μM; for inhibition at 5 µM / IC50 / reduction in inclusion counts / inhibition against C. pneumoniae: strain K7, HL cells; for inhibition at 5 µM: read-out: reduction in inclusion counts / inhibition against C. pneumoniae; for IC50: read-out: IC50 (inclusion counts, dose-response); for concentration that inhibits infectivity and interferes with inclusions: human epithelial HL cells
Protocol: Human epithelial HL cells were grown in a RPMI1640 medium supplemented with 7.5% fetal bovine serum (FBS), 2 mM L-glutamine and 20 μg/ml gentamicin sulfate. A clinical C. pneumoniae isolate Kajaani 7 (K7), originally isolated from a young person suffering from pneumonia was obtained from Professor Pekka Saikku (Department of Medicinal Microbiology, Institute of Diagnostics, University of Oulu, Finland) and a cardiovascular C. pneumoniae isolate CV-6 was obtained from Professor Matthias Maass (Paracelsus Medical University, Salzburg, Austria). The reference strains CWL-029 (VR-1310) and AR-39 (ATCC 53592) were obtained from American Type Culture Collection (ATCC). All strains were propagated in HL cells as previously described. The K7 strain was used in all studies whereas CV-6 and the ATCC reference strains were used to confirm our initial compound screening data.
as §1
All experiments were carried out as four replicates in minimum and the inclusion counts were determined as mean ± SEM of 4 eye fields per coverslip. For statistical analysis GraphPad Prism software v. 5.0 and Student’s t-test (p < 0.05) were applied.

HL cells = test: Resazurin cell viability assay; assay type: cell-based, human; conditions: 5 μM, 72 h
Protocol: (§2) HL cells were seeded into 96-well plates at density […] and incubated overnight before starting the exposure. The β^2,2-amino acid derivatives were added at concentrations of 5 μM either in the presence or absence of 1 μg/ml cycloheximide in a final volume of 200 μl and the plates were incubated for 72 h. The resazurin assay was performed as described in Karlsson et al..

[3] = test system: C. pneumoniae inclusions in HL cells; assay type: cell-based, Chlamydia pneumoniae; conditions: 2.5 μM added at 2 hpi
Protocol: HL cells were seeded in 6-well plates at 2 x 10^6 cells per well and cultured overnight. The cell monolayers were infected with C. pneumoniae (MOI 1) and treated with 2.5 μM of derivative A2 by adding it to the culture medium at 2 hpi based on findings in the dose-response assay. Untreated and uninfected HL control cells were incubated concurrently. The cells were pre-fixed at 24, 48 and 72 hpi with Karnovsky's fixative at 4°C, overnight. The samples were further processed for TEM as described in [30].

[4] = Resazurin cell viability assay; assay type: cell-based, human; conditions: human, HL cells
Protocol: as §2

**Q.** For NCCNC(=O)C(CN)(Cc1ccc(C(F)(F)F)cc1)Cc1ccc(C(F)(F)F)cc1 [A1], which “inclusion vacuole counts in the second passage of infection vs untreated control” value (C. pneumoniae [1]) is on record?
**A.** The value was “significantly lower”.

**Q.** What about the “suppression of infectious progeny production” value (C. pneumoniae [1]) of the same compound?
**A.** The value was “neither A1 nor A2 suppressed C. pneumoniae infectious progeny production”.

**Q.** What about the inhibition at 5 µM (C. pneumoniae EBs) of the same compound?
**A.** Its inhibition at 5 µM is ≤ 50%.

**Q.** What about the “reduction in inclusion vacuole counts” value (C. pneumoniae [2]) of the same compound?
**A.** Its value is 10–20%.

**Q.** And the inhibition at 3 µM (C. pneumoniae [2])?
**A.** Its inhibition at 3 µM is ~70%.

**Q.** What about the inhibition at 5 µM (C. pneumoniae strain K7; Chlamydia pneumoniae) of the same compound?
**A.** The inhibition at 5 µM was 95.6%.

**Q.** And the IC50 (C. pneumoniae strain K7; Chlamydia pneumoniae)?
**A.** The IC50 was 2 µM and 1.4 µg/mL.

**Q.** And the “concentration that inhibits infectivity and interferes with inclusions” value (C. pneumoniae strain K7)?
**A.** Its value is “below 5 μM”.

**Q.** What about the “effect on host HL cell viability (in words)” value (HL cells) of the same compound?
**A.** The value was “no substantial effect on host HL cell viability”.

**Q.** Which results are given for NCCNC(=O)C(CN)(Cc1ccc2ccccc2c1)Cc1ccc2ccccc2c1 [A2]?
**A.** inclusion vacuole counts in the second passage of infection vs untreated control (C. pneumoniae [1]): significantly lower; suppression of infectious progeny production (C. pneumoniae [1]): neither A1 nor A2 suppressed C. pneumoniae infectious progeny production; inhibition at 5 µM (C. pneumoniae EBs): ≤ 50%; reduction in inclusion vacuole counts (C. pneumoniae [2]): 20–30%; inhibition at 3 µM (C. pneumoniae [2]): ~80%; inhibition at 5 µM (C. pneumoniae strain K7; Chlamydia pneumoniae): 100%; IC50 (C. pneumoniae strain K7; Chlamydia pneumoniae): 2 µM and 1.3 µg/mL; concentration that inhibits infectivity and interferes with inclusions (C. pneumoniae strain K7): below 5 μM; TEM finding in infected HL cells ([3]; 24 hpi): affected inclusion vacuoles were visible; TEM finding in infected HL cells ([3]; 48 hpi): smaller inclusions, which only contained fragments of RBs and EBs; TEM finding in infected HL cells ([3]; 72 hpi): no RBs or EBs were present; effect on host HL cell viability (in words) (HL cells): no substantial effect on host HL cell viability

**Q.** Which results are given for CC(C)(C)c1ccc(CC(CN)(Cc2ccc(C(C)(C)C)cc2)C(=O)NCCN)cc1 [A3]?
**A.** inhibition at 5 µM (C. pneumoniae EBs): 77%; reduction in inclusion counts / inhibition against C. pneumoniae (C. pneumoniae strain K7): full inhibition; viability at 72 h, 5 µM [4]: 30.6%

**Q.** Which results are given for CN(C)CCOC(=O)C(CN)(Cc1ccc(C(F)(F)F)cc1)Cc1ccc(C(F)(F)F)cc1 [A4]?
**A.** inhibition at 5 µM (C. pneumoniae EBs): 20%; inhibition at 5 µM (C. pneumoniae strain K7; Chlamydia pneumoniae): 23.2%; effect on host HL cell viability (in words) (HL cells): no cytotoxic effects

**Q.** With CN(C)CCOC(=O)C(CN)(Cc1ccc2ccccc2c1)Cc1ccc2ccccc2c1 [A5] as the compound, how does the inhibition at 5 µM (C. pneumoniae EBs) read?
**A.** The inhibition at 5 µM was 66%.

**Q.** And the inhibition at 5 µM (C. pneumoniae strain K7; Chlamydia pneumoniae)?
**A.** The inhibition at 5 µM was 89.8%.

**Q.** And the “reduction of HL cell viability” value (HL cells)?
**A.** The value was 35.6%.

**Q.** For CN(C)CCOC(=O)C(CN)(Cc1ccc(C(C)(C)C)cc1)Cc1ccc(C(C)(C)C)cc1 [A6], which inhibition at 5 µM (C. pneumoniae EBs) is on record?
**A.** The inhibition at 5 µM was 90%.

**Q.** What about the “reduction in inclusion counts / inhibition against C. pneumoniae” value (C. pneumoniae strain K7) of the same compound?
**A.** Its value is “full inhibition”.

**Q.** What about the viability at 72 h, 5 µM [4] of the same compound?
**A.** Its viability at 72 h, 5 µM is 18.4%.

**Q.** With CO[C@H]1/C=C/O[C@@]2(C)Oc3c(C)c(O)c4c(O)c(c(/C=N/N5CCN(C)CC5)c(O)c4c3C2=O)NC(=O)/C(C)=C\C=C\[C@H](C)[C@H](O)[C@@H](C)[C@@H](O)[C@@H](C)[C@H](OC(C)=O)[C@@H]1C [Rifampicin, reference compound] as the compound, how does the inhibition at 0.012 µM (C. pneumoniae strain K7; Chlamydia pneumoniae, K7, positive control, 12 nM, read-out: inhibition in C. pneumoniae inclusion counts) read?
**A.** The inhibition at 0.012 µM was 95 to 98%.

**Q.** Which inhibition at 0.02 µM (C. pneumoniae strain K7; Chlamydia pneumoniae, K7, positive control, 20 nM, read-out: inhibition in C. pneumoniae inclusion counts) does the source give for CC[C@H]1OC(=O)[C@H](C)[C@@H](O[C@H]2C[C@@](C)(OC)[C@@H](O)[C@H](C)O2)[C@H](C)[C@@H](O[C@@H]2O[C@H](C)C[C@H](N(C)C)[C@H]2O)[C@](C)(O)C[C@@H](C)CN(C)[C@H](C)[C@@H](O)[C@]1(C)O [azithromycin, reference compound] here?
**A.** The inhibition at 0.02 µM was 95 to 98%.
